The results in this text go back to patent US20170066717A1, “NEW PHENYLAZETIDINECARBOXYLATE OR -CARBOXAMIDE COMPOUNDS” (INVENTIVA, priority 2014, published 2017).

One series has as its target T1, NURR-1/RXRγ (Homo sapiens, UniProt P48443).
T1 construct: expressed in transfected cells; host or cells: Cos-7 cells
Kind of series: Transactivation test, NURR-1-Gal4/RXRγ, luciferase reporter in Cos-7 cells. The series is classed as cell-based. As to conditions: for Emax: COS-7, induction level relative to reference XCT0135908 at 2×10^−5 M (=100%), read-out: hNurr1_RXRgFL Emax (%); for EC50: Cos-7 cells, NURR-1-Gal4/RXRγ, luciferase reporter, read-out: hNurr1_RXRgFL EC50. In general terms: Reporter assays use an easily measured gene product as a stand-in for the process of interest.

For another series, the target named is T2, NURR-1/RXRα (Homo sapiens, UniProt P19793).
T2 construct: expressed in transfected cells; host or cells: Cos-7 cells
Put plainly: Transactivation test, NURR-1-Gal4/RXRα, luciferase reporter in Cos-7 cells. The series is classed as cell-based. To be noted: for Emax: COS-7, induction level relative to reference XCT0135908 at 2×10^−5 M (=100%), read-out: hNurr1_RXRaFL Emax (%); for EC50: Cos-7 cells, NURR-1-Gal4/RXRα, luciferase reporter, read-out: hNurr1_RXRaFL EC50.

T1 sequence (P48443 whole entry): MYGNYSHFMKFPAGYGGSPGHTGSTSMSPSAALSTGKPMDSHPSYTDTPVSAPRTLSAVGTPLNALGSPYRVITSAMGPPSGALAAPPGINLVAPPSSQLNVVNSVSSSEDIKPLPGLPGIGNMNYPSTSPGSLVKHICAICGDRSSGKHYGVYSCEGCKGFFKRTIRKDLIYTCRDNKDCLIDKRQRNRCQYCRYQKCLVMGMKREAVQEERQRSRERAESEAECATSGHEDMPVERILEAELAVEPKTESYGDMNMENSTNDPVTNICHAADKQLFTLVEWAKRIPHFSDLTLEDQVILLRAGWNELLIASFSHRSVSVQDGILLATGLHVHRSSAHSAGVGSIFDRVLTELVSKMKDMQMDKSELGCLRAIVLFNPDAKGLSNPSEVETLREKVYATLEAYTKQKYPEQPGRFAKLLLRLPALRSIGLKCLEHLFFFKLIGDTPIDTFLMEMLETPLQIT
T1 sequence (P43354 whole entry partner): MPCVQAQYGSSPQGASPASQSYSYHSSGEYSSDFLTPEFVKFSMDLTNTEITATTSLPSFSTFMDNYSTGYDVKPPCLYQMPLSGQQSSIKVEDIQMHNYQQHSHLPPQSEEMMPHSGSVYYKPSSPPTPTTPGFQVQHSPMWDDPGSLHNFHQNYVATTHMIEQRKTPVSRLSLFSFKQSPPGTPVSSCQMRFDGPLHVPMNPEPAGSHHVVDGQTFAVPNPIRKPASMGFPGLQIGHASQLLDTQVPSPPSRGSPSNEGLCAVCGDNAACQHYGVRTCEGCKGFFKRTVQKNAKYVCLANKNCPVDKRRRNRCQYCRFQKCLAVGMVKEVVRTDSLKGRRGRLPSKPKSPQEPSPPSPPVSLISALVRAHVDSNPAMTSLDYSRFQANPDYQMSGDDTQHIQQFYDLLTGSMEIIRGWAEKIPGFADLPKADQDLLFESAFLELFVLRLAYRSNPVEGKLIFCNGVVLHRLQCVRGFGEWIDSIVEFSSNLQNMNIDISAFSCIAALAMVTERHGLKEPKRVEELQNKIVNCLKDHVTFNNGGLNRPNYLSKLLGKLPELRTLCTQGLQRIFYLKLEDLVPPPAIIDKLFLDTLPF
T1 sequence (P04386 1-147 partner limits assumed): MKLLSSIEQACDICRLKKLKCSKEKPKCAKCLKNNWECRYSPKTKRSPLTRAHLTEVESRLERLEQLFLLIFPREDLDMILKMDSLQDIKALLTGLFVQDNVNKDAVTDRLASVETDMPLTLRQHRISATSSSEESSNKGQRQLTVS
T2 sequence (P19793 whole entry): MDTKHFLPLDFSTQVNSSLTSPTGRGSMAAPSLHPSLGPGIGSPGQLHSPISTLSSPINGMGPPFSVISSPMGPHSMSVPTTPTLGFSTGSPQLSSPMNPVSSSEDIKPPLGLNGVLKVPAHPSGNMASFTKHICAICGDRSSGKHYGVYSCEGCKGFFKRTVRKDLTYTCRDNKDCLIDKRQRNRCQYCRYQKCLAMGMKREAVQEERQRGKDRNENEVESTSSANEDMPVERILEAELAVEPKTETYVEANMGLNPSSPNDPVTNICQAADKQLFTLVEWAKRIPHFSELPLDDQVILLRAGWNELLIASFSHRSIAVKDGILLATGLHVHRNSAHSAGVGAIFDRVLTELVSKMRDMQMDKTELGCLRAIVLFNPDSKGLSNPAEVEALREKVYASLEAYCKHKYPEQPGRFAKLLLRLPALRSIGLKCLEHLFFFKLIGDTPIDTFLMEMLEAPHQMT
T2 sequence (P43354 whole entry partner): as the sequence (P43354 whole entry partner) above
T2 sequence (P04386 1-147 partner limits assumed): as the sequence (P04386 1-147 partner limits assumed) above

A word on the Emax: it is the greatest response seen or fitted, relative to the assay's reference. A word on the EC50: it is the concentration at which the effect is half-maximal. For orientation: melting point means the temperature of the solid-liquid transition. `CC1(C)CN(c2cccc(N3CC(C(=O)[O-])C3)c2)c2ncc(C(F)(F)F)cc2O1.[Na+]` [Example 241, sodium 1-[3-[2,2-dimethyl-7-(trifluoromethyl)-3H-pyrido[3,2-b][1,4]oxazin-4-yl]phenyl]-azetidine-3-carboxylate]: the melting point is 123 to 139 °C. Further, at NURR-1/RXRγ, the Emax stood at 107% and the EC50 was 194 nM. At NURR-1/RXRα, the Emax was found to be 100% and the EC50 stood at 110 nM.
The compound `CC1(C)CN(c2cccc(N3CC(C(=O)[O-])C3)c2)c2cnc(C(F)(F)F)cc2O1.[Na+]` [Example 242, sodium 1-[3-[2,2-dimethyl-7-(trofluoromethyl)-3H-pyrido[4,3-b][1,4]ozaxin-4-yl]phenyl]azetidine-3-carboxylate] registered a melting point of 149 to 155 °C. On NURR-1/RXRγ, the Emax was 76% and the EC50 is 299 nM. In addition, on NURR-1/RXRα, the Emax amounted to 84% and the EC50 was 227 nM.
In the case of `CC1(C)Cc2cc(Cl)ccc2N(c2cccc(N3CC(C(=O)[O-])C3)c2)C1.[Na+]` [Example 243, sodium 1-[3-(6-chloro-3,3-dimethyl-2,4-dihydroquinolin-1-yl)phenyl]azetidine-3-carboxylate], the melting point is 70 to 80 °C. On NURR-1/RXRγ, the Emax came to 89% and the EC50 is 34 nM. At NURR-1/RXRα, the Emax turned out to be 83% and the EC50 came to 58 nM.
`CC(C)CC1Oc2cc(C(F)(F)F)ccc2N(c2cccc(N3CC(C(=O)O)C3)c2)C1=O` (stereo not drawn) [Example 246, 1-[3-[2-isobutyl-3-oxo-7-(trifluoromethyl)-1,4-benzoxazin-4-yl]phenyl]azetidine-3-carboxylic acid] returned a melting point of 86 to 96 °C. For the same compound, at NURR-1/RXRγ, the Emax came to 94% and the EC50 was 53 nM. At NURR-1/RXRα, the Emax was 96% and the EC50 was 13 nM.
`CCC1(CC)Oc2cc(C(F)(F)F)ccc2N(c2cccc(N3CC(C(=O)O)C3)c2)C1=O` [Example 247, 1-[3-[2,2-diethyl-3-oxo-7-(trifluoromethyl)-1,4-benzoxazin-4-yl]phenyl]azetidine-3-carboxylic acid] came in with a melting point of 73 to 85 °C. Besides, on NURR-1/RXRγ, the maximal response (Emax) came out at 92% and the EC50 worked out at 43 nM. On NURR-1/RXRα, the Emax is 100% and the EC50 came to 19 nM.
Taken in the same sequence, the figures for `CC(C)C1Oc2cc(C(F)(F)F)ccc2N(c2cccc(N3CC(C(=O)O)C3)c2)C1=O` (stereo not drawn) [Example 248, 1-[3-[2-isopropyl-3-oxo-7-(trifluoromethyl)-1,4-benzoxazin-4-yl]phenyl]azetidine-3-carboxylic acid] were 78 to 87 °C, 92%, 313 nM, 105% and 22 nM.
Consider `Cc1ccc2c(c1)OC(C)(C)C(=O)N2c1cccc(N2CC(C(=O)O)C2)c1` [Example 249, 1-[3-(2,2,7-trimethyl-3-oxo-1,4-benzoxazin-4-yl)phenyl]azetidine-3-carboxylic acid], for which the melting point was 78 to 91 °C. Also, at NURR-1/RXRγ, the Emax came to 83% and the EC50 was 548 nM. At NURR-1/RXRα, the Emax was 95% and the EC50 came out at 245 nM.
As for `CC1(C)Oc2cc(C(C)(C)C)ccc2N(c2cccc(N3CC(C(=O)[O-])C3)c2)C1=O.[Na+]` [Example 250, sodium 1-[3-(7-tert-butyl-2,2-dimethyl-3-oxo-1,4-benzoxazin-4-yl)phenyl]azetidine-3-carboxylate], the melting point lay in the range of 178 to 198 °C. At NURR-1/RXRγ, the Emax amounted to 83% and the EC50 amounted to 288 nM. Further, on NURR-1/RXRα, the Emax came out at 98% and the EC50 was 289 nM.
In the case of `CC(C)c1ccc2c(c1)OC(C)(C)C(=O)N2c1cccc(N2CC(C(=O)O)C2)c1` [Example 251, 1-[3-(7-isopropyl-2,2-dimethyl-3-oxo-1,4-benzoxazin-4-yl)phenyl]azetidine-3-carboxylic acid], the melting point is 104 to 108 °C. On NURR-1/RXRγ, the Emax came out at 88% and the EC50 was 766 nM. Besides, on NURR-1/RXRα, the Emax was 93% and the EC50 turned out to be 514 nM.
For `O=C(O)C1CN(c2cccc(N3C(=O)COc4cc(C(F)(F)F)ccc43)c2)C1` [Example 252, 1-[3-[3-oxo-7-(trifluoromethyl)-1,4-benzoxazin-4-yl]phenyl]azetidine-3-carboxylic acid], the melting point lay in the range of 195 to 199 °C. Besides, on NURR-1/RXRγ, the Emax is 96% and the EC50 is 2090 nM. Besides, at NURR-1/RXRα, the Emax amounted to 105% and the EC50 stood at 719 nM.
`CCC1(CC)CN(c2cccc(N3CC(C(=O)O)C3)c2)c2ccc(C(F)(F)F)cc21` [Example 255, 1-[3-[3,3-diethyl-5-(trifluoromethyl)indolin-1-yl]phenyl]azetidine-3-carboxylic acid] had a melting point of 83 °C. Besides, on NURR-1/RXRγ, the Emax is 103% and the EC50 was found to be 44 nM. Moreover, on NURR-1/RXRα, the Emax came out at 104% and the EC50 amounted to 18 nM.
As to `CCC1(CC)C(=O)N(c2cccc(N3CC(C(=O)O)C3)c2)c2ccc(C(F)(F)F)cc21` [Example 258, 1-[3-[3,3-diethyl-2-oxo-5-(trifluoromethyl)indolin-1-yl]phenyl]azetidine-carboxylic acid], the melting point is 159 to 161 °C. For the same compound, at NURR-1/RXRγ, the Emax was found to be 107% and the 50% effective concentration (EC50) came out at 755 nM. Further, on NURR-1/RXRα, the Emax is 102% and the EC50 amounted to 236 nM.
Consider `CC1(C)Cc2cc(C(F)(F)F)ccc2N(c2cccc(N3CC(C(=O)O)C3)c2)C1=O` [Example 259, 1-[3-[3,3-dimethyl-2-oxo-6-(trifluoromethyl)-4H-quinolin-1-yl]phenyl]azetidine-3-carboxylic acid], for which the melting point was in the range of 96 to 100 °C. Also, at NURR-1/RXRγ, the Emax came to 98% and the EC50 came to 349 nM. Besides, at NURR-1/RXRα, the Emax was found to be 95% and the EC50 turned out to be 101 nM.
As to `CC(C)c1ccc2c(c1)c1c(n2-c2cccc(N3CC(C(=O)O)C3)c2)CCC(C)(C)C1` [Example 260, 1-[3-(6-isopropyl-3,3-dimethyl-2,4-1H-carbzaol-9-yl)phenyl]azetidine-3-carboxylic acid], the melting point was in the range of 55 to 82 °C. At NURR-1/RXRγ, the Emax is 56% and the EC50 was 551 nM. In addition, at NURR-1/RXRα, the Emax amounted to 56% and the EC50 stood at 255 nM.
Take `O=C([O-])C1CN(c2cccc(N3c4ccc(Cl)cc4C4CCCC43)c2)C1.[Na+]` (stereo not drawn) [Example 261, sodium 1-[3-(7-chloro-2,3,3a,8b-tetrahydro-1H-cyclopenta[b]indol-4-yl)phenyl]azetidine-3-carboxylate]: the melting point was 141 to 170 °C. At NURR-1/RXRγ, the Emax is 95% and the EC50 is 304 nM. At NURR-1/RXRα, the Emax was found to be 78% and the EC50 amounted to 31 nM.
Taken in the same sequence, the figures for `Cc1nc2cc(C(F)(F)F)ccc2n1-c1cccc(N2CC(C(=O)O)C2)c1` [Example 262, 1-[3-[2-methyl-5-(trifluoromethyl)benzimidazol-1-yl]phenyl]azetidine-3carboxylic acid] were 94 to 96 °C, 98%, 2830 nM, 81% and 1700 nM.
In the case of `CCC1(C)C=C(c2cccc(N3CC(C(=O)[O-])C3)c2)c2ccc(C(F)(F)F)cc2O1.[Na+]` (stereo not drawn) [Example 266, sodium 1-[3-[2-ethyl-2-methyl-7-(trifluoromethyl)chromen-4-yl]phenyl]azetidine-3-carboxylate], the melting point lay within 201 to 214 °C. Moreover, on NURR-1/RXRγ, the Emax is 113% and the EC50 is about 1 nM. On NURR-1/RXRα, the maximal response (Emax) was 112% and the EC50 was found to be 1 nM.
As for `O=C([O-])C1CN(c2cccc(N3c4ccc(Cl)cc4C4CC43)c2)C1.[Na+]` (stereo not drawn) [Example 280, sodium 1-[3-(5-chloro-1a,6b-dihydro-1H-cyclopropa[b]indol-2-yl)phenyl]azetidine-3-carboxylate], the melting point was in the range of 62 to 69 °C. On NURR-1/RXRγ, the Emax turned out to be 77% and the EC50 worked out at 148 nM. For the same compound, on NURR-1/RXRα, the Emax turned out to be 95% and the EC50 was found to be 82 nM.
